Measured values reported in publication PMC7719179, “Small molecule inhibition of Dynamin-dependent endocytosis targets multiple niche signals and impairs leukemia stem cells” (Nature Communications, 2020).
Values joined by “and” are separate entries in the source; they are usually repeats but may differ in a detail not shown here. Equal values may be shown once. Read-outs that look alike come from different tables or passages of the source.

Tests used:
[1] = tested on: Lmo2^Tg primary T-ALL; assay: Survival (Kaplan-Meier) and leukemia growth delay in recipients of Lmo2^Tg primary T-ALL; type: in vivo, mouse; conditions: * = non-leukemic at endpoint
Protocol: Single-cell suspension of murine thymus cells were intravenously injected into sublethally irradiated (650 Rads) isogenic Ly5.1 (Cd45.1) mice. Fold expansion was calculated by dividing the absolute output number of donor-derived DN3a cells harvested at the experimental endpoint by the respective number of DN3a thymocytes injected in each recipient. Limiting dilution transplantations were performed as described, by injecting various doses (10^1 to 10^6) of thymocytes per recipient, and mice were scored positive when T-cell lineage reconstitution assessed 6 weeks after transplantation was >1%. Leukemia-propagating cell frequency was calculated by applying Poisson statistics using the ELDA: Extreme Limiting Dilution Analysis software (Walter and Eliza Hall Institute Bioinformatics, Parkville VIC, Australia)[96]. Limiting dilution transplantations were performed independently from any other transplantation assays, using thymocytes from three different Lmo2^Tg mice for each cohort. Kaplan–Meier survival and statistical analysis were performed using GraphPad Prism. 6.0 software (GraphPad Software Inc, San Diego CA, USA). […]
derived leukemic cells (%Cd45.2+) in the peripheral blood (PB) of recipients injected with Lmo2 Tg primary leukemias (T-ALL 582, n=5/cohort; T-ALL 273, n=7/cohort; T-ALL 249, n=5/cohort) treated with Dynole 34-2, VXL or combination therapy. […]

[2] = tested on: Ba/F3-IL7R cells; assay: Survival of IL-7-dependent Ba/F3-IL7R cells; type: cell-based, murine; conditions: for Survival (%) over DMSO control, reported as 100%: Ba/F3-IL7R cells, replicates
Protocol: Ba/F3 cells (kindly provided by a person from The Walter and Eliza Hall Institute of Medical Research) were infected with pMIG-R1/Il7r retroviral supernatants produced in 293T cells, and transduced cells were sorted with a BD Influx (BD Australia) and selected by culture in medium supplemented with 5 ng/mL rmIL-7 (#217-17, Pepro Tech, Rocky Hill NJ, USA) for 7 days. Ba/F3 cells stably expressing Il7r (Ba/F3-IL7R) were infected with TxTCPVIR-Stat5-CA retroviral supernatants produced in 293T. Cell sorting was performed with a BD Influx and transduced cells were treated with doxycycline for 48 h to induce the expression of the Stat5-CA-T2A-mCherry fusion protein.
Flow cytometry analyses were performed as previously described[10],[86] on single-cell suspensions stained using BD Pharmingen antibodies (BD Australia, North Ryde NSW, Australia) against mouse CD4 (RM4-5), CD8 (53-6.7), CD25 (PC61.5), CD44 (IM7), CD45.1 (A20), CD45.2 (104), Thy1.2 (53-2.1; #561616), TCRβ (H57-597), CD117 (ACK45), CD135 (A2F10.1), CD150 (TC15-12F12.2; #562373), B220 (RA3-6B2; #563708), CD3 (145-2C11; #563004), CD19 (ID3; #557655), Gr-1 (RB6-8C5; #563299 and #565033), CD11b (M1/70; #563015 and #560455), Ter119 (Ter119; #565523 and #557909), Sca-1 (D7; #558160) and an eBioscience antibody (eBioscience, Invitrogen) against mouse NOTCH1 (22E5). DN3 populations and IL-7R were stained using BioLegend antibodies (Australian Biosearch, Balcatta WA, Australia) against mouse CD28 (E18) and CD127 (A7R34), respectively. Apoptosis was measured using an antibody against AnnexinV (#556420, BD Australia) and the […] Sytox Blue (BD Australia) following the manufacturer’s protocol.

[3] = tested on: patient-derived ETP-ALL and T-ALL xenografts; assay: Relative viability and LC50 on patient-derived ETP-ALL and T-ALL xenografts, 48 h; type: cell-based, human; parameters: Relative % viable cells: unit of the concentration uncertain; conditions: for CC50: Homo sapiens, read-out: LC50 Dynole 34-2
Source text: patient-derived (a ) ETP- ALL1 and (b) T-ALL 2 xenografts treated with increasing concentration of […]
Viability was normalized to vehicle-treated cells with experiments performed in duplicates. Human CD34-positive (CD34+) hematopoietic stem and progenitors from healthy donors (N=3) were used as controls. […]

For CCCCCCCCNC(=O)C(C#N)=Cc1cn(CCCN(C)C)c2ccccc12 [Dynole 34-2, 2-Cyano-N-octyl-3-(1-(3-dimethylaminopropyl)-1H-indol-3-yl)-acrylamide], the Time to leukemia ([1]; recipients of primary T-ALL 249) was 3.7 weeks and 3 weeks and 3.4 weeks, the Time to leukemia ([1]; recipients of primary T-ALL 582) was 4.1 weeks and 5.6 weeks and 5.7 weeks and 6 weeks and 6.3 weeks and the “Survival (%) over DMSO control, reported as 100%” value (from here on “Survival (%) over DMSO control”) ([2]; +IL-7, Dynole 34-2 0.2 (head prints mM)) was 98.98% and 96.19% and 98.31% and 99.95% and 64.95% and 22.36% and 89.89% and 75.78% and 97.73% and 100.16%. For the same compound, the “Survival (%) over DMSO control” value ([2]; +IL-7, Dynole 34-2 1.0 (head prints mM)) was 96.00% and 88.79% and 100.24% and 102.05% and 16.85% and 13.04% and 78.86% and 82.29% and 101.66% and 91.15%, the “Survival (%) over DMSO control” value ([2]; +IL-7, Dynole 34-2 5.0 (head prints mM)) was 81.60% and 25.70% and 92.65% and 90.92% and 25.47% and 16.90% and 48.81% and 60.17% and 57.90% and 33.60% and the “Survival (%) over DMSO control” value ([2]; +IL-7, Dynole 34-2 10.0 (head prints mM)) was 1.62% and 1.82% and 0.05% and 0.27% and 26.62% and 22.03% and 44.15% and 40.27% and 4.53% and 9.16%. The “Survival (%) over DMSO control” value ([2]; +IL-7, Dynole 34-2 25.0 (head prints mM)) was 1.30% and 1.60% and 0.00% (2×) and 24.81% and 18.62% and 3.40% and 4.14% and 4.55% and 3.04%, the “cell death of Ba/F3-IL7R cells” value ([2]; result in words) was “induced cell death in a dose-dependent manner” and the “Relative % viable cells” value ([3]; ALL8, dose 0.04 (unit uncertain)) was 90.4% and 94.4%. The “Relative % viable cells” value ([3]; ALL8, dose 0.2 (unit uncertain)) was 80.81% and 92.6%, the “Relative % viable cells” value ([3]; ALL8, dose 1 (unit uncertain)) was 72.11% and 72.9% and 110.2% and the “Relative % viable cells” value ([3]; ALL8, dose 5 (unit uncertain)) was 59.7% and 59.2%. The “Relative % viable cells” value ([3]; ALL8, dose 125 (unit uncertain)) was 1.3% and 3.1% and 2.3%, the “Relative % viable cells” value ([3]; ALL29, dose 0.04 (unit uncertain)) was 101.7% and 96.7% and the “Relative % viable cells” value ([3]; ALL29, dose 0.2 (unit uncertain)) was 96.7% and 101.5%. For the same compound, the “Relative % viable cells” value ([3]; ALL29, dose 5 (unit uncertain)) was 40.7% and 42.8%, the “Relative % viable cells” value ([3]; ALL29, dose 125 (unit uncertain)) was 9.1% and 6.3% and 3% and the “Relative % viable cells” value ([3]; ALL33, dose 0.04 (unit uncertain)) was 93.7% and 90.9%. The “Relative % viable cells” value ([3]; ALL33, dose 0.2 (unit uncertain)) was 85.9%, the “Relative % viable cells” value ([3]; ALL33, dose 5 (unit uncertain)) was 38.4% and 45.6% and the “Relative % viable cells” value ([3]; ALL33, dose 25 (unit uncertain)) was 25.8% and 17.5%. For the same compound, the “Relative % viable cells” value ([3]; ALL33, dose 125 (unit uncertain)) was 0%, the “Relative % viable cells” value ([3]; ETP1, dose 0.04 (unit uncertain)) was 101.2% and the “Relative % viable cells” value ([3]; ETP1, dose 0.2 (unit uncertain)) was 100.4% and 100%. The “Relative % viable cells” value ([3]; ETP1, dose 1 (unit uncertain)) was 99.9% and 99.8%, the “Relative % viable cells” value ([3]; ETP1, dose 5 (unit uncertain)) was 98.2% and the “Relative % viable cells” value ([3]; ETP1, dose 25 (unit uncertain)) was 36.3% and 35.6%. For the same compound, the “Relative % viable cells” value ([3]; ETP1, dose 125 (unit uncertain)) was 7% and 0%, the “Relative % viable cells” value ([3]; ETP5, dose 0.04 (unit uncertain)) was 102.7% and the “Relative % viable cells” value ([3]; ETP5, dose 0.2 (unit uncertain)) was 95.7% and 97.2%. For the same compound, the “Relative % viable cells” value ([3]; ETP5, dose 1 (unit uncertain)) was 97.7%, the “Relative % viable cells” value ([3]; ETP5, dose 5 (unit uncertain)) was 90.9% and 92.8% and the “Relative % viable cells” value ([3]; ETP5, dose 25 (unit uncertain)) was 25.9% and 13.9%. The “Relative % viable cells” value ([3]; ETP5, dose 125 (unit uncertain)) was 2.9% and 6.9% and 3.5%, the “Relative % viable cells” value ([3]; ETP12, dose 0.04 (unit uncertain)) was 107.6% and 104.3% and the “Relative % viable cells” value ([3]; ETP12, dose 0.2 (unit uncertain)) was 95.8% and 90.7%. The “Relative % viable cells” value ([3]; ETP12, dose 5 (unit uncertain)) was 77.5%, the “Relative % viable cells” value ([3]; ETP12, dose 25 (unit uncertain)) was 2.7% and 1.6% and 1.1% and the “Relative % viable cells” value ([3]; ETP12, dose 125 (unit uncertain)) was 2.6% and 7.9% and 2%. For the same compound, the “Relative % viable cells” value ([3]; ETP13, dose 0.04 (unit uncertain)) was 91.2% and 89.4%, the “Relative % viable cells” value ([3]; ETP13, dose 0.2 (unit uncertain)) was 91.8% and 87.5% and the “Relative % viable cells” value ([3]; ETP13, dose 1 (unit uncertain)) was 90.4% and 102.1%. For the same compound, the “Relative % viable cells” value ([3]; ETP13, dose 5 (unit uncertain)) was 60.7% and 66.4% and 84.4%, the “Relative % viable cells” value ([3]; ETP13, dose 25 (unit uncertain)) was 4.2% and 3.5% and the “Relative % viable cells” value ([3]; ETP13, dose 125 (unit uncertain)) was 1.5% and 2.3% and 0.7%. The “Relative % viable cells” value ([3]; ETP14, dose 0.04 (unit uncertain)) was 74% and 80.7% and 108.4%, the “Relative % viable cells” value ([3]; ETP14, dose 0.2 (unit uncertain)) was 80.8% and 85.9% and the “Relative % viable cells” value ([3]; ETP14, dose 1 (unit uncertain)) was 56.6% and 73.2% and 82.4%. The “Relative % viable cells” value ([3]; ETP14, dose 5 (unit uncertain)) was 58.1% and 85.7% and 56%, the “Relative % viable cells” value ([3]; ETP14, dose 25 (unit uncertain)) was 10.8% and 11.5% and the CC50 ([3]; ALL8, Relapse, Mature) was 5.76 µM. The CC50 ([3]; ALL29, Diagnosis, Mature) was 4.51 µM, the CC50 ([3]; ALL33, Diagnosis, Mature) was 2.43 µM and the CC50 ([3]; ETP1, Diagnosis, ETP) was 19.9 µM. It also gave a CC50 ([3]; ETP5, Diagnosis, ETP) of 49.9 µM, a CC50 ([3]; ETP12, Diagnosis, ETP) of 4.26 µM and a CC50 ([3]; ETP13, Diagnosis, ETP) of 7.05 µM. The CC50 ([3]; ETP14, Diagnosis, ETP) was 5.25 µM.
